Results as given in patent publication US20250281479A1, “TREATMENT OF CAVERNOUS ANGIOMAS WITH A 4-SUBSTITUTED PIPERIDINE DERIVATIVE” (Neurelis, Inc., priority 2024, published 2025).

Legend:
CYP2B2 = test: CYP expression in hepatocyte culture; type: in vitro ADME; details: at concentrations as low as 3.2 μM
Procedure: (§1) Exposure to NRL-2017 was similar or greater (up to 5-fold) than that to NRL-1049 in rats when dosed once a day (QD). In monkeys, exposure to NRL-2017 was also greater (up to 33-fold) than that to NRL-1049. When rats were dosed twice a day (BID) for 14 days, there was a decrease in formation of NRL-2017 with exposure to NRL-2017 lower than that of NRL-1049 (ratio as low as 0.06). […] NRL-1049 bound to human serum albumin and human alpha1-acid glycoprotein. […] There was also inhibition of P-glycoprotein (P-gp) (only CACO-2 cells), organic anion transporting polypeptides (OATP) OATP1B1, OATP1B3 and OAT3 (IC50, >100 μM), but no effect on P-gp (MDCK2 cells), breast cancer resistance protein (BCRP), bile salt export pump (BSEP), or MATE2-K. NRL-1049 is a substrate for P-gp, not BCRP. […] This conclusion will be revisited when human pharmacokinetic (PK) data becomes available.

[1] = tissue distribution and excretion; type: in vivo
Procedure: as §1

dog hepatocytes = test: incubation with dog hepatocytes; type: in vitro ADME
Procedure: as §1

cytochrome P450 (CYP) = test: metabolite or time-dependent CYP inhibition; type: in vitro ADME
Procedure: as §1

SMILES: C[C@@H](N)C1CCN(S(=O)(=O)c2cccc3cnccc23)CC1 [NRL-1049]
- reduced expression of CYP2B2 (CYP2B2): 0.5 fold
- tissue distribution ([1]; brain, aorta, inferior vena cava): distributed to brain and vascular tissue
- excretion ([1]; in vivo): excreted in urine
- metabolism by hepatocytes (dog hepatocytes): not metabolized
- metabolite or time-dependent inhibition (cytochrome P450 (CYP)): no metabolite or time-dependent inhibition
